pIC50: −log10 of the molar value. Non-standard residues stand in square brackets, D forms with d. Residues, ends and D or L forms follow the SMILES beside them. *: point of attachment. Hexenoyl(2E,4S-Me) = CC[C@H](C)/C=C/C(=O)*; Leu(3R-OH) = CC(C)[C@@H](O)[C@H](N)C(=O)O; NH((S)CH(Me)CH2NMe2) = C[C@@H](CN(C)C)N*; NH(2-morpholinoethyl) = C(CN1CCOCC1)N*; Gly(octyl) = CCCCCCCC[C@H](N)C(=O)O; Aib = CC(C)(N)C(=O)O; βAla = NCCC(=O)O
Columns and labels:
[1] = Cytotoxicity assay on L6-cells (Alamar Blue); details: rat, Cytotox L6, Cytotoxicity against rat myoblast cells (L6)
[2] = system: Plasmodium falciparum; test: 3H-hypoxanthine incorporation assay against Plasmodium falciparum; type: cell-based; details: In vitro inhibition, read-out: P.falc NF5
Procedure: (§1) Tests were done in triplicate.
IC50 values were calculated by linear interpolation.

[3] = system: Trypanosoma cruzi trypomastigote forms (Tulahuen strain); test: Intracellular Trypanosoma cruzi assay in L6-cells, beta-galactosidase/CPRG readout; type: cell-based; details: In vitro inhibition, read-out: T.cruzi.
Procedure, shortened: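 Readout was β-galactosidase cleavage of CPRG, read photometrically at 540 nm after 2–6 h colour development, giving IC50 values. Parasites: LacZ-expressing Tulahuen C2C4 strain grown in rat L6 myoblasts; run in triplicate.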

[4] = system: Axenically grown Leishmania donovani amastigotes (strain MHOM/ET/67/L82); test: Axenic Leishmania donovani amastigote resazurin assay; type: cell-based; details: In vitro inhibition, read-out: L.don. ax
Procedure, shortened: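 IC50 values derive from resazurin fluorescence (ex 536 nm, em 588 nm), expressed relative to the negative control, after 2-4 hours of plate development. Axenic amastigotes of strain MHOM/ET/67/L82 were used; each test run in triplicate.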

[5] = system: intracellular Leishmania donovani (L.don. InMac); test: Intracellular Leishmania donovani assay (L.don. InMac); type: cell-based; details: In vitro inhibition
Description: as §1

[6] = system: Trypanosoma brucei rhodesiense (STIB 900 strain); test: Alamar Blue assay against Trypanosoma brucei rhodesiense grown in axenic medium; type: cell-based; details: In vitro inhibition, read-out: T.b.rhod.
Procedure, shortened: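 Alamar Blue-based IC50 determination, in triplicate, on axenically grown STIB 900 trypanosomes. Melarsoprol included as reference.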

Row | SMILES | IC50 at 70 h [1] [nM] | pIC50 [2] | pIC50 [3] | pIC50 [4] | pIC50 [5] | pIC50 [6]
1 | CCCCCCCC[C@H](NC(=O)[C@@H]1CCCN1C(=O)/C=C/[C@@H](C)CC)C(=O)N[C@H](C(=O)NC(C)(C)C(=O)N[C@@H](CC(C)C)C(=O)N[C@@H](CC(C)C)C(=O)NC(C)(C)C(=O)NC(C)(C)C(=O)NCCC(=O)NCCN1CCOCC1)[C@H](O)C(C)C [Compound 5569, (2S)-N-[(1S,2R)-2-hydroxy-3-methyl-1-[(1-methyl-1-{[(1S)-3-methyl-1-{[(1S)-3-methyl-1-{[1-methyl-1-({1-methyl-1-[(2-{[2-(morpholin-4-yl)ethyl]carbamoyl}ethyl)carbamoyl]ethyl}carbamoyl)ethyl]carbamoyl}butyl]carbamoyl}butyl]carbamoyl}ethyl)carbamoyl]butyl]-2-{[(2S)-1-[(2E,4S)-4-methylhex-2-enoyl]pyrrolidin-2-yl]formamido}decanamide] ({Hexenoyl(2E,4S-Me)}-P[Gly(octyl)][Leu(3R-OH)][Aib]LL[Aib][Aib][βAla]-{NH(2-morpholinoethyl)}) | 2420 | 7.75 | 6.84 | 8.42 | 6.97 | 8.77
2 | CCCCCCCC[C@H](NC(=O)/C=C/[C@@H](C)CC)C(=O)N[C@H](C(=O)NC(C)(C)C(=O)N[C@@H](CC(C)C)C(=O)N[C@@H](CC(C)C)C(=O)NC(C)(C)C(=O)NC(C)(C)C(=O)NCCC(=O)N[C@@H](C)CN(C)C)[C@H](O)C(C)C [Compound 5586, (2S)-N-[(1S,2R)-1-[(1-{[(1S)-1-{[(1S)-1-{[1-({1-[(2-{[(2S)-1-(dimethylamino)propan-2-yl]carbamoyl}ethyl)carbamoyl]-1-methylethyl}carbamoyl)-1-methylethyl]carbamoyl}-3-methylbutyl]carbamoyl}-3-methylbutyl]carbamoyl}-1-methylethyl)carbamoyl]-2-hydroxy-3-methylbutyl]-2-[(2E,4S)-4-methylhex-2-enamido]decanamide] ({Hexenoyl(2E,4S-Me)}-[Gly(octyl)][Leu(3R-OH)][Aib]LL[Aib][Aib][βAla]-{NH((S)CH(Me)CH2NMe2)}) | 1150 | 7.73 | 6.97 | 8.33 | 6.98 | 8.18
3 | CCCCCCCC[C@H](NC(=O)[C@@H]1CCCN1C(C)=O)C(=O)N[C@H](C(=O)NC(C)(C)C(=O)N[C@@H](CC(C)C)C(=O)N[C@@H](CC(C)C)C(=O)NC(C)(C)C(=O)NC(C)(C)C(=O)NCCC(=O)N[C@@H](C)CN(C)C)[C@H](O)C(C)C [Compound 5588, (2S)-2-{[(2S)-1-acetylpyrrolidin-2-yl]formamido}-N-[(1S,2R)-1-[(1-{[(1S)-1-{[(1S)-1-{[1-({1-[(2-{[(2S)-1-(dimethylamino)propan-2-yl]carbamoyl}ethyl)carbamoyl]-1-methylethyl}carbamoyl)-1-methylethyl]carbamoyl}-3-methylbutyl]carbamoyl}-3-methylbutyl]carbamoyl}-1-methylethyl)carbamoyl]-2-hydroxy-3-methylbutyl]decanamide] (Ac-P[Gly(octyl)][Leu(3R-OH)][Aib]LL[Aib][Aib][βAla]-{NH((S)CH(Me)CH2NMe2)}) | 3540 | 8.02 | 5.63 | 8.34 | 6.33 | 8.22
